Source: patent US12643887B2, “Heterocyclic derivatives with cardiomyocyte proliferation activity for treatment of heart diseases” (Tongji University, priority 2019, dated 2026)

Experiments:
human DYRK1A = target: T1, human DYRK1A (Homo sapiens, UniProt Q13627); experiment: DYRK1A enzyme assay (ADP-Glo); format: biochemical; settings: ADP-Glo, ATP 60 μM; read-out: DYRK1A IC50
T1 construct: Recombinant full-length DYRK1A (expressed in E. Coli cells with an N-terminal GST tag); GST (N); purchased SignalChem D09-10G; host or cells: E. coli
Procedure: The ability of compounds to inhibit human DYRK1A kinase activities was determined using a commercially available ADP-Glo™ Kinase Assay kit (Promega, Cat #V9102) according to the manufacturer's protocol.
Recombinant full-length DYRK1A (expressed in E. Coli cells with an N-terminal GST tag) was purchased from SignalChem (Cat #D09-10G). The DYRK substrate peptide (DYRKtide, sequence: […]) was purchased from SignalChem (Cat #D96-58). This assay, run in a 384-well plate format, is a generic method for measuring kinase activities using an ADP-Glo Kinase Assay Kit. The basic assay procedure involves two steps: (1) Enzymatic step: inhibitors are incubated with the kinase and then ATP (included in the ADP-Glo Kinase Assay Kit) and the DYRKtide are added to start the enzymatic reaction; (2) Detection step: after the kinase reaction, first ADP-Glo™ Reagent is added to terminate the kinase reaction and deplete the remaining ATP. Second, the Kinase Detection Reagent is added to simultaneously convert ADP to ATP and allow the newly synthesized ATP to be measured using a luciferase/luciferin reaction. The light generated is measured using a luminometer.
Briefly, DYRK1A (3 nM) in the enzymatic buffer solutions (40 mM Tris, pH 7.5, 20 mM MgCl2, 0.1 mg/ml BSA, 50 μM DTT) were mixed with various concentrations of inhibitors (dissolved in 100% DMSO). These solutions were incubated for 30 minutes at 25° C., and subsequently a mixture of substrate peptide and ATP was added with the final peptide and ATP concentrations at 20 μM and 60 μM, respectively. The final reaction mixture of enzyme-substrate-ATP-compound was incubated for 60 minutes at 25° C.
Afterwards ADP-Glo™ Reagent was added and the mixture was incubated at 25° C. for 60 minutes. Then Kinase Detection Reagent was added and the final mixture was incubated at 25° C. for 60 minutes. The luminescence signal of the final solution was measured on an Envision instrument (PerkinElmer). The percent (%) inhibition at each concentration of a compound is calculated relative to the luminescence signal in the Max and Min control wells contained within each assay plate. […] The concentrations and percent inhibition values for a test compound are plotted and the concentration of the compound required to achieve 50% inhibition (IC50) is determined with a four-parameter logistic dose response equation.

[1] = tested on: Neonatal Rat Ventricular Myocytes (NRVMs); experiment: Myocyte proliferation assay (EdU assay) in neonatal rat ventricular myocytes; format: cell-based; settings: growth relative to blank myocyte growth without compound added; for Avg 1 uM (average myocyte proliferation): compound 1 uM; for Avg 3 uM (average myocyte proliferation): compound 3 uM; for Avg 10 uM (average myocyte proliferation): compound 10 uM
Procedure: 1. Isolation of and Culture Neonatal Rat Ventricular Myocytes (NRVMs)
Ventricles from neonatal rats were separated from the atria, cut into small pieces (about 2×2 mm^2) and then dissociated in Ca2+-free HBSS containing 0.125 mg ml-1 trypsin (Gibco), 10 μg ml-1 DNase II (Sigma) and 0.1 mg ml-1 collagenase type IV (Sigma). The digestion was carried out under constant stirring at 37° C. for 5 min. The supernatant was collected with FBS (Gibco) after each digestion period. After digestion, the collected supernatant was centrifuged at 1000 g for 10 min at room temperature, and then cell pellets were resuspended in DMEM (Gibco) supplemented with 10% FBS and with 100 uM 5-bromo-2′-deoxyuridine (Sigma). The resuspended cells were passed through a cell strainer ([…], BD Falcon) and seeded onto 100-mm plastic dishes for 2 h at 37° C. in a 5% CO2 to remove fibroblasts, the supernatant was then collected and plated onto 1% gelatin (Sigma)-coated dishes. 24 h after the seeding, the medium was changed to DMEM (Gibco) containing 2% FBS (Gibco), 1% insulin-transferrin-selenium (ITS; Gibco), 1% Penicillin-Streptomycin (Gibco). After 24 hours of low serum culture, remove the medium with DMEM (Gibco) containing 6% FBS (Gibco), 1% insulin-transferrin-selenium (ITS; Gibco), 1% Penicillin-Streptomycin (Gibco), different concentrations of compounds (the compounds were pre-diluted in the medium and the drug concentration was 10 uM, 3 uM, 1 uM, fully mixed). After 36 h add Edu substrate (Invitrogen) according to the manufacturer's guidelines, and then after 12 h cell can be used.
• 2.1. Immobilization: Remove the medium and fix the cells with […] in 200 ul (whichever is covered) for 15 min and wash the cells twice with 500 ul of PBS for 5 min each time. • 2.2. Broken membrane: Add 200 ul of 0.3% Triton-X 100 (diluted in PBS) to each well, incubate for 10-15 min at room temperature (the time should not be too long), and wash the cells twice with 500 ul of PBS for 5 min each time. • 2.3. Blocking: Add 200 ul of 10% normal goat serum (diluted with 0.1% PBST) to each well, incubate for 1 h at room temperature, and wash twice with 500 ul of 0.1% PBST for 5 min each time. • 2.4. Primary antibody: dilute the primary antibody (abcam, ab8295) to blocking solution at a ratio of 1:200, add 100 ul per well, incubate for 1 h at room temperature (may be slightly longer than 2-3 h), wash the cells twice with 500 ul 0.1% PBST for 5 min each time. • 2.5. Secondary antibody: Dilute the fluorescently labeled secondary antibody (abcam, ab150117) into blocking solution at a ratio of 1:200, add 100 ul per well, incubate for 1 h at room temperature (the time should not be too long), wash the cells twice with 0.1% PBST for 5 min each time, pay attention to the whole process. Protected from light. • 2.6. Edu staining (Invitrogen C10338) • 2.6.1 Prepare Click-iT® reaction cocktail according to Table 3. It was important to add the ingredients in the order listed in the table; otherwise, the reaction would not proceed optimally. Use the Click-iT® reaction cocktail within 15 minutes of preparation.
• 2.6.2 Add 0.1 mL of Click-iT® reaction cocktail to each well containing a coverslip. Rock the plate briefly to ensure that the reaction cocktail is distributed evenly over the coverslip. • 2.6.3 Incubate the plate for 30 minutes at room temperature, protected from light. • 2.6.4 Remove the reaction cocktail, then wash the cells twice with 0.1% PBST for 5 min each time. • 2.7. DAPI staining: DAPI stain was diluted to PBS at a ratio of 1:1000, 100 ul per well, incubated for 30 min at room temperature, and the cells were washed twice with PBS for 5 min each. 3. Data Analysis
We used Molecular Devices' Image Xpress Micro Confocal for high-throughput photo and data analysis.

Row | Compound | IC50 (human DYRK1A) [µM] | Avg 1 uM (average myocyte proliferation) [1] | Avg 3 uM (average myocyte proliferation) [1] | Avg 10 uM (average myocyte proliferation) [1]
1 | COc1ccccc1N(C)C1=N/C(=C\c2ccc3c(c2)OCO3)C(=O)N1 [Example 21, (Z)-5-(benzo[d][1,3]dioxol-5-ylmethylene)-2-((2-methoxyphenyl)(methyl)amino)-3,5-dihydro-4H-imidazol-4-one] | 0.1 to 1 | *** (>50%) | *** (>50%) | ** (10%-50%)
2 | O=C1NC(N(Cc2ccccc2)c2ccccc2)=N/C1=C\c1ccc2c(c1)OCO2 [Example 22, (Z)-5-(benzo[d][1,3]dioxol-5-ylmethylene)-2-(benzyl(phenyl)amino)-3,5-dihydro-4H-imidazol-4-one] | > 10 | ** (10%-50%) | ** (10%-50%) | ** (10%-50%)
3 | CN(Cc1ccccc1)C1=N/C(=C\c2ccc3c(c2)OCO3)C(=O)N1 [Example 23, (Z)-5-(benzo[d][1,3]dioxol-5-ylmethylene)-2-(benzyl(methyl)amino)-3,5-dihydro-4H-imidazol-4-one] | 0.1 to 1 | ** (10%-50%) | ** (10%-50%) | ** (10%-50%)
4 | CN(C1=N/C(=C\c2ccc3ncsc3c2)C(=O)N1)c1ccc(Cl)cc1 [Example 24, (Z)-5-(benzo[d]thiazol-6-ylmethylene)-2-((4-chlorophenyl)(methyl)amino)-3,5-dihydro-4H-imidazol-4-one] | 0.1 to 1 | * (<10% growth relative to blank myocyte growth without compound added.) | * (<10% growth relative to blank myocyte growth without compound added.) | * (<10% growth relative to blank myocyte growth without compound added.)
5 | O=C1NC(Nc2ccccc2)=N/C1=C\c1ccc2[nH]cnc2c1 [Example 26, (Z)-5-((1H-benzo[d]imidazol-5-yl)methylene)-2-(phenylamino)-3,5-dihydro-4H-imidazol-4-one] | < 0.1 | * (<10% growth relative to blank myocyte growth without compound added.) | * (<10% growth relative to blank myocyte growth without compound added.) | * (<10% growth relative to blank myocyte growth without compound added.)
6 | O=C(O)CCN(C1=N/C(=C\c2ccc3c(c2)OCO3)C(=O)N1)c1ccccc1 [Example 27, (Z)-3-((4-(benzo[d][1,3]dioxol-5-ylmethylene)-5-oxo-4,5-dihydro-1H-imidazol-2-yl)(phenyl)amino)propanoic acid] | 1 to 10 | * (<10% growth relative to blank myocyte growth without compound added.) | * (<10% growth relative to blank myocyte growth without compound added.) | ** (10%-50%)
7 | CN(Cc1ccccc1)C1=N/C(=C\c2ccc3ncsc3c2)C(=O)N1 [Example 28, (Z)-5-(benzo[d]thiazol-6-ylmethylene)-2-(benzyl(methyl)amino)-3,5-dihydro-4H-imidazol-4-one] | 0.1 to 1 | * (<10% growth relative to blank myocyte growth without compound added.) | * (<10% growth relative to blank myocyte growth without compound added.) | * (<10% growth relative to blank myocyte growth without compound added.)
8 | O=C1NC(NCCN2CCOCC2)=N/C1=C\c1ccc2ncsc2c1 [Example 29, (Z)-5-(benzo[d]thiazol-6-ylmethylene)-2-((2-morpholinoethyl)amino)-3,5-dihydro-4H-imidazol-4-one] | 0.1 to 1 | ** (10%-50%) | * (<10% growth relative to blank myocyte growth without compound added.) | *** (>50%)
9 | CN(C1=N/C(=C\c2ccc3[nH]cnc3c2)C(=O)N1)c1ccccc1 [Example 30, (Z)-5-((1H-benzo[d]imidazol-5-yl)methylene)-2-(methyl(phenyl)amino)-3,5-dihydro-4H-imidazol-4-one] | 1 to 10 | * (<10% growth relative to blank myocyte growth without compound added.) | * (<10% growth relative to blank myocyte growth without compound added.) | –
10 | CN(CCN1CCOCC1)C1=N/C(=C\c2ccc3ncsc3c2)C(=O)N1 [Example 32, (Z)-5-(benzo[d]thiazol-6-ylmethylene)-2-(methyl(2-morpholinoethyl)amino)-3,5-dihydro-4H-imidazol-4-one] | 1 to 10 | * (<10% growth relative to blank myocyte growth without compound added.) | * (<10% growth relative to blank myocyte growth without compound added.) | –
11 | CN(CC1CC1)C1=N/C(=C\c2ccc3ncsc3c2)C(=O)N1 [Example 33, (Z)-5-(benzo[d]thiazol-6-ylmethylene)-2-((cyclopropylmethyl)(methyl)amino)-3,5-dihydro-4H-imidazol-4-one] | 1 to 10 | * (<10% growth relative to blank myocyte growth without compound added.) | * (<10% growth relative to blank myocyte growth without compound added.) | –
12 | O=C1NC(N(Cc2ccccc2)c2ccccc2)=N/C1=C\c1ccc2[nH]cnc2c1 [Example 35, (Z)-5-((1H-benzo[d]imidazol-5-yl)methylene)-2-(benzyl(phenyl)amino)-3,5-dihydro-4H-imidazol-4-one] | 1 to 10 | * (<10% growth relative to blank myocyte growth without compound added.) | * (<10% growth relative to blank myocyte growth without compound added.) | –
